Laboratory results published in patent US20260199365A1, “BIS-SULFONAMIDE SHIP1 ACTIVATORS” (The Research Foundation for the State University of New York, priority 2022, published 2026).
Entries after “also recorded” stand apart in the source; their conditions may differ.

Molecular target: T1, recombinant human truncated SHIP1 (tSHIP1) (Homo sapiens, UniProt Q92835)
T1 construct: tSHIP1 (SHIP1, residues 397-864) was amplified from pET24TEV-tSHIP1; His tag; made in house; host or cells: E. coli BL21
T1 sequence (Q92835 397-864): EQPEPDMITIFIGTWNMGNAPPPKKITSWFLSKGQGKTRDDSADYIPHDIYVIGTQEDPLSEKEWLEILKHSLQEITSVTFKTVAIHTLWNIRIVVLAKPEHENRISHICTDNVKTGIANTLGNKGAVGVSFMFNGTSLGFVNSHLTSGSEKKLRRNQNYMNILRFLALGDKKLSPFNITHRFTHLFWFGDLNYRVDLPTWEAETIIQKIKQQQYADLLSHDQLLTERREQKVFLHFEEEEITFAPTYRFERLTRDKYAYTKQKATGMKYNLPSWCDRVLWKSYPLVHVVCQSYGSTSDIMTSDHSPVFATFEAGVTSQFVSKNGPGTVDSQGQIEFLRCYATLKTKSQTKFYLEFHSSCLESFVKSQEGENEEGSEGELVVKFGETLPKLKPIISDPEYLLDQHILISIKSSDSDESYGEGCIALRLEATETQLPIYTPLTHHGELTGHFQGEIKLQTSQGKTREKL
Experiment: Malachite Green Phosphatase Release Assay (SHIP1 phosphatase activity)
Assay type: biochemical
Settings: for Phosphatase activity in the Malachite Green Assay, analog concentration 125 μM: 125 μM analog; for Phosphatase activity in the Malachite Green Assay, analog concentration 125 μM / Phosphatase activity in the Malachite Green Assay, analog concentration 250 μM / Phosphatase activity in the Malachite Green Assay, analog concentration 500 μM: 100 μM PI(3,4,5)P3-diC8 substrate, normalized to vehicle control (DMSO) = 100%; for Phosphatase activity in the Malachite Green Assay, analog concentration 250 μM: 250 μM analog; for Phosphatase activity in the Malachite Green Assay, analog concentration 500 μM: 500 μM analog, >100% activation, <100% inhibition; for SHIP1 activator activity in the malachite green assay: discussion of Table 4 (125-500 μM); for Malachite (SHIP1), 125 μM / Malachite (SHIP1), 250 μM / Malachite (SHIP1), 500 μM: bis-sulfonamide hybrids
Experimental: ^aPhosphatase activity for SHIP1 and SHIP2 enzyme as determined in the malachite green assay. Results were normalized to the phosphatase activity level from vehicle control (DMSO) used as 100% activity. Values >100% are attributed to activation, while values <100% show inhibition of the enzyme compared to the control. The assay was performed at the indicated concentration of the small molecule with 100 μM PI(3,4,5)P3-diC8 as the substrate. ^bnd=not determined, compound 23 was insoluble.
Cloning and expression of tSHIP1 of truncated human SHIP1 protein (tSHIP1) from human whole blood mRNA have been previously described (see Brooks R, Iyer, S., Akada, H., Neelam, S., Russo, C. M., Chisholm, J. D., and Kerr W. G. Coordinate Expansion of Murine Hematopoietic and Mesenchymal Stem Cell Compartments by SHIPi Stem Cells 2015; 33:848). Briefly, tSHIP1 (SHIP1, residues 397-864) was amplified from pET24TEV-tSHIP1. Plasmids were extracted with Midi Prep (Qiagen) and sequences were verified by sequencing of the entire expression regions. The plasmids were then transformed into E. coli BL21 (New England Biolabs). Fresh colonies were amplified in 1 L LB at 37° C., shaking at 250 rpm until OD600 nm reached 0.6. Protein expression was induced with […] IPTG and incubation was continued at 16° C., shaking at 250 rpm for 16 h. Following centrifugation, bacteria pellets were stored overnight at −20° C. Protein was extracted form bacterial cell pellet using BugBuster HT (Millipore), according to manufacturer's recommendations. The His-tagged protein was purified by FPLC using HisTrapHP 5 ml column (Cytiva Life Sciences) at a 5 ml/min flow rate and 10 mM-1M imidazole gradient in Buffer A (20 mM Tris pH 8.0, 300 mM NaCl, 10 mM imidazole, 5 mM β-mercaptoethanol). Fractions containing active protein by Malachite Green Phosphatase Release Assay (Echelon, see below) were pooled, concentrated and buffer exchanged to reduce imidazole concentration by centrifugation using Pierce Protein Concentrators 30KMWCO PES, (ThermoFisher Scientific). Protein was aliquoted and stored at −80° C. in a mixture of Buffer A (without β-ME) and 50% glycerol.
Malachite Green Phosphatase Release Assays: Malachite Green Phosphatase Release Assays (Echelon Biosciences) were performed with recombinant human truncated SHIP1 (tSHIP1) (Brooks, 2015) and SHIP2 (Echelon Biosciences). Briefly, serial dilutions of the compounds dissolved in DMSO were added to the recombinant enzymes diluted in reaction buffer Rx (50 mM Hepes pH 7.4, 150 mM NaCl, 1 mM MgCl2, 0.25 mM EDTA) in triplicate reactions in 96-well plates. Reactions were incubated for 2 min at room temperature. […] of 1 mM Phosphatidylinositol 3,4,5-trisphosphate diC8 (PI(3,4,5)P3diC8) (Echelon Biosciences) was added to each reaction to a final concentration of 100 μM in a final volume of […]. Following 20 min incubation at 37° C., 100 μL of Malachite Green Solution (Echelon Biosciences) was added to each well and plates were incubated at room temperature in the dark for 15 min. Plates were then read at 620 nm on a plate reader (Synergy 2, BioTek).

Row | Phosphatase activity in the Malachite Green Assay, analog concentration 125 μM [%] | Phosphatase activity in the Malachite Green Assay, analog concentration 250 μM [%] | Phosphatase activity in the Malachite Green Assay, analog concentration 500 μM [%] | SHIP1 activator activity in the malachite green assay | Malachite (SHIP1), 125 μM [%] | Malachite (SHIP1), 250 μM [%] | Malachite (SHIP1), 500 μM [%] | Compound | SHIP1 activator activity in the malachite green assay (listed as 22)
1 | 109 | 131 | 161 | nearly as potent as 69 |  |  |  | Cc1sc(S(=O)(=O)N2CCSCC2)cc1NC(=O)CN1C(=O)c2ccccc2S1(=O)=O [Compound K402, N-[2-methyl-5-(thiomorpholine-4-sulfonyl)thiophen-3-yl]-2-(1,1,3-trioxo-2,3-dihydro-1-benzothiazol-2-yl) acetamide] | 
2 | 89 | 118 | 132 |  |  |  |  | Cc1sc(S(=O)(=O)N2CCSCC2)cc1NC(=O)[C@H](C)NS(=O)(=O)c1ccc(F)cc1 [Compound K389, (2S)-2-(4-Fluorobenzenesulfonamido)-N-[2-methyl-5-(thiomorpholine-4-sulfonyl)thiophen-3-yl]propanamide] | 
3 |  |  |  |  | 80 | 88 | 116 | O=C(CNS(=O)(=O)c1ccccc1C(F)(F)F)Nc1ccc(S(=O)(=O)N2CCCCC2)cc1 [Compound K427] | 
4 | 94 | 97 | 107 | less active |  |  |  | O=C(CNS(=O)(=O)c1ccc(F)cc1)Nc1cccc(S(=O)(=O)N2CCSCC2)c1 [Compound K400, 2-(4-Fluorobenzenesulfonamido)-N-[3-(thiomorpholine-4-sulfonyl)phenyl]acetamide] | 
5 | 99 | 83 | 119 | loss of bioactivity |  |  |  | Cc1sc(S(=O)(=O)N2CCSCC2)cc1NC(=O)CNS(=O)(=O)c1ccc(I)cc1 [Compound K374, 2-(4-Iodobenzenesulfonamido)-N-[2-methyl-5-(thiomorpholine-4-sulfonyl)thiophen-3-yl]acetamide] | 
6 | 97 | 94 | 83 | loss of potency |  |  |  | Cc1sc(S(=O)(=O)N2CCSCC2)cc1NC(=O)CNC(=O)c1ccccc1 [Compound K371, N-[2-methyl-5-(thiomorpholine-4-sulfonyl)thiophen-3-yl]-2-(phenylformamido) acetamide] | 
7 | 112 | 105 | 130 | Activity was maintained |  |  |  | O=C(CNS(=O)(=O)c1ccc(F)cc1)Nc1ccc(S(=O)(=O)N2CCSCC2)cc1 [Compound K399, 2-(4-Fluorobenzenesulfonamido)-N-[4-(thiomorpholine-4-sulfonyl)phenyl] acetamide] | 
8 | 108 | 115 | 150 | increase in the activity |  |  |  | Cc1sc(S(=O)(=O)N2CCSCC2)cc1NC(=O)CNS(=O)(=O)c1ccc([N+](=O)[O-])cc1 [Compound K375, N-[2-methyl-5-(thiomorpholine-4-sulfonyl)thiophen-3-yl]-2-(4-nitrobenzenesulfonamido) acetamide] | 

The remaining lines, values behind:

Row | Compound | Phosphatase activity in the Malachite Green Assay, analog concentration 125 μM [%] | Phosphatase activity in the Malachite Green Assay, analog concentration 250 μM [%] | Phosphatase activity in the Malachite Green Assay, analog concentration 500 μM [%] | SHIP1 activator activity in the malachite green assay | Malachite (SHIP1), 125 μM [%] | Malachite (SHIP1), 250 μM [%] | Malachite (SHIP1), 500 μM [%] | SHIP1 activator activity in the malachite green assay (listed as 22)
9 | O=C(CNS(=O)(=O)c1ccc(C(F)(F)F)cc1)Nc1ccc(S(=O)(=O)N2CCCCC2)cc1 [Compound K426] |  |  |  |  | 75 | 63 | 74 | 
10 | CCN(CC)S(=O)(=O)c1cc(NC(=O)CNS(=O)(=O)c2ccc(F)cc2)c(C)s1 [Compound K383, N-[5-(Diethylsulfamoyl)-2-methylthiophen-3-yl]-2-(4-fluorobenzenesulfonamido) acetamide] | 101 | 93 | 109 |  |  |  |  | 
11 | Cc1sc(S(=O)(=O)N2CCCCC2)cc1NC(=O)[C@@H]1CCCN1S(=O)(=O)c1ccccc1C(F)(F)F [Compound K421] |  |  |  |  | 96 | 122 | 158 | 
12 | Cc1sc(S(=O)(=O)N2CC[S+]([O-])CC2)cc1NC(=O)CNS(=O)(=O)c1ccc(F)cc1 [Compound K377] | 98 | 89 | 80 |  |  |  |  | no activity as a SHIP activator; also recorded: some inhibition of SHIP1
13 | Cc1sc(S(=O)(=O)N2CCSCC2)cc1NC(=O)[C@@H](C)NS(=O)(=O)c1ccc(F)cc1 [Compound K386, (2R)-2-(4-Fluorobenzenesulfonamido)-N-[2-methyl-5-(thiomorpholine-4-sulfonyl)thiophen-3-yl]propanamide] |  | 108 | 116 |  |  |  |  | 
14 | Cc1sc(S(=O)(=O)N2CCCCC2)cc1NC(=O)[C@@H]1CCCN1S(=O)(=O)c1ccc(C(F)(F)F)cc1 [Compound K422] |  |  |  |  | 96 | 103 | 126 | 
15 | Cc1sc(S(=O)(=O)N2CCSCC2)cc1NC(=O)CNS(=O)(=O)c1ccccc1 [Compound K376, 2-Benzenesulfonamido-N-[2-methyl-5-(thiomorpholine-4-sulfonyl)thiophen-3-yl]acetamide] | 104 | 106 | 107 | loss of bioactivity |  |  |  | 
